Laboratory results as given in publication PMC7403315, “Cyclic peptide FXII inhibitor provides safe anticoagulation in a thrombosis model and in artificial lungs” (Nature Communications, 2020).
Starred links: 1 amine or outer side, 2 acyl side, 3 side chain; linkers in the order of their positions; H or OH if unused. Positions of bridges follow the written chain, without caps; N, C: chain ends. Non-standard residues stand in square brackets, D forms with d. Residues, ends and D or L forms follow the SMILES beside them. TATA = O=C(CC[*:1])N1CN(C(=O)CC[*:2])CN(C(=O)CC[*:3])C1; Phe(4-F) = N[C@@H](Cc1ccc(F)cc1)C(=O)O; β3hR = N=C(N)NCCC[C@H](N)CC(=O)O

Columns and labels:
[1] = target: T1, Mouse α-FXIIa (Mus musculus, UniProt Q80YC5); assay: FXIIa protease inhibition assay with fluorogenic substrate Boc-Gln-Gly-Arg-AMC; type: biochemical; settings: purified peptide without coumarin label; read-out: Ki mouse FXIIa
T1 construct: Mouse α-FXIIa; purchased Molecular Innovations MFXIIA
T1 sequence (Q80YC5 355-597 limits assumed): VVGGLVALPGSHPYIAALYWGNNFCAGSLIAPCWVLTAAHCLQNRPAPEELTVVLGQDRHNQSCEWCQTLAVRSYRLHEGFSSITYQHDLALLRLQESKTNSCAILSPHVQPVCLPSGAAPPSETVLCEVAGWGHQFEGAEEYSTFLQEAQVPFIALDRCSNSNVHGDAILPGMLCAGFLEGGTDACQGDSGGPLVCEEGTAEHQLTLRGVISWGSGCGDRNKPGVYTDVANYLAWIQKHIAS
T1 sequence (Q80YC5 20-354 limits assumed): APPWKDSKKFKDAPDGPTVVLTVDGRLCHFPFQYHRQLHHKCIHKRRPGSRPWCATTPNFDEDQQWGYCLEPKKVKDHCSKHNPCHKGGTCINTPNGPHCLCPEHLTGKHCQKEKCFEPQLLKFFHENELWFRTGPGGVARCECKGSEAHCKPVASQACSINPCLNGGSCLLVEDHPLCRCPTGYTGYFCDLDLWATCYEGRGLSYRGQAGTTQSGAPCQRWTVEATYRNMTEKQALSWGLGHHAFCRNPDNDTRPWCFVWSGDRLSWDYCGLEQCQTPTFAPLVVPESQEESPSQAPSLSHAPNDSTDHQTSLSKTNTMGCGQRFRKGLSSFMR
Description: (§1) In order to test the inhibitory activity of peptides without prior purification, we developed the following method. […] After solid-phase peptide synthesis, cleavage, and ether precipitation, the peptides were chemically cyclized and their Ki values were determined in a FXIIa activity assay using a fluorogenic substrate.
(§2) Protease inhibition assays
(§3) The inhibitory activity of peptides was determined by measuring the residual protease activity with a fluorogenic substrate. The assay was performed in buffer containing 10 mM Tris-Cl, pH […]
(§4) 1% (v/v) DMSO in a volume of 150 µl. FXIIa activity was measured with the fluorogenic substrate Boc-Gln-Gly-Arg-AMC (Bachem) at a final concentration of 50 µM. Mouse α-FXIIa (Molecular Innovations cat # MFXIIA) and human β-FXIIa (Molecular Innovations cat # HFXIIAB) were used at final concentrations of 0.4 nM. The reaction was pipetted as follows: 50 µl of bicyclic peptide in assay buffer were added to 50 µl of FXIIa in assay buffer and incubated for 10 minutes at 25°C before 50 µl of 150 µM fluorogenic substrate in assay buffer were added to measure the residual protease activity with an Infinite M200Pro fluorescence plate reader (excitation at 368 nm, emission at 467 nm; Tecan) for a period of 30 minutes with a read every minute at 25°C. The Tecan software i-control (version 1.1) was used for data analysis. Stock solutions of 1 mM bicyclic peptide were prepared by either dissolving the unpurified cyclization reaction with water or by dissolving purified and lyophilized peptide in water. The bicyclic peptides were serially diluted two-fold using assay buffer. Sigmoidal curves were fitted to the data using the following dose response equation (1), wherein x = peptide concentration, y = % protease activity, and p = Hill slope. IC50 values were derived from the fitted curve.
(§5) The inhibition constants (Ki) were calculated according to the equation of Cheng and Prusoff, Ki = IC50/(1+([S]0/Km), wherein IC50 is the functional strength of the inhibitor, [S]0 is the total substrate concentration, and Km is the Michaelis-Menten constant. […]
(§6) the substrate Boc-Gln-Gly-Arg-AMC. […]

[2] = target: T2, human β-FXIIa (Homo sapiens, UniProt P00748); assay: as above; type: biochemical; settings: purified peptide without coumarin label; read-out: Ki human FXIIa
T2 construct: human β-FXIIa (Molecular Innovations cat #); purchased Molecular Innovations HFXIIAB; host or cells: human blood
T2 sequence (P00748 373-615 limits assumed, other chains not shown): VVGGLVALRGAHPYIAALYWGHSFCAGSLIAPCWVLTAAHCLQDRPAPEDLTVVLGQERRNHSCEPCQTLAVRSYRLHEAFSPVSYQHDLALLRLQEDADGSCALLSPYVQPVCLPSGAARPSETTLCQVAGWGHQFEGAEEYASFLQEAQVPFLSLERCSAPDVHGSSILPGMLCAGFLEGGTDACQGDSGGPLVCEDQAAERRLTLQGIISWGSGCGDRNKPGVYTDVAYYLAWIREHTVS
Description: as §1, §2, §3, §4, §5, §6

SMILES	Ki [1] [nM]	Ki [2] [nM]
CC(C)C[C@@H]1NC(=O)[C@H](CCC(N)=O)NC(=O)[C@H](Cc2c[nH]cn2)NC(=O)[C@@H]2CSCCC(=O)N3CN(CN(C3)C(=O)CCSC[C@H](NC(=O)[C@@H](CO)NC(=O)[C@H](N)CCCNC(=N)N)C(=O)N[C@@H](Cc3ccc(F)cc3)C(=O)N[C@@H](CCCNC(=N)N)C(=O)N[C@@H](CC(C)C)C(=O)N3CCC[C@H]3C(=O)N2)C(=O)CCSC[C@@H](C(=O)N[C@@H](CCCNC(=N)N)C(N)=O)NC(=O)C[C@H](CCCNC(=N)N)NC1=O [FXII900 (with C-term Arg)] (H-[dR][dS]C[Phe(4-F)]RLPCHQL[β3hR]CR-NH2; linker 3-8-13 via TATA)	0.5 ± 0.15	0.34 ± 0.03
CC(C)C[C@@H]1NC(=O)[C@H](CCC(N)=O)NC(=O)[C@H](CCCNC(=N)N)NC(=O)[C@@H]2CSCCC(=O)N3CN(CN(C3)C(=O)CCSC[C@H](NC(=O)[C@@H](CO)NC(=O)[C@H](N)CCCNC(=N)N)C(=O)N[C@@H](Cc3ccc(F)cc3)C(=O)N[C@@H](CCCNC(=N)N)C(=O)N[C@@H](CC(C)C)C(=O)N3CCC[C@H]3C(=O)N2)C(=O)CCSC[C@@H](C(=O)N[C@@H](CCCNC(=N)N)C(N)=O)NC(=O)C[C@H](CCCNC(=N)N)NC1=O [Arg8His reverted] (H-[dR][dS]C[Phe(4-F)]RLPCRQL[β3hR]CR-NH2; linker 3-8-13 via TATA)	0.91 ± 0.04	0.31 ± 0.02
